In US20230346889A9, “TREATMENT OF ACUTE HEART FAILURE” (AnaCardio R&D AB, priority 2019, published 2023):
Marks after values point to notes of the source that are not given here.

Assays:
[1] = system: patients with advanced CHF and reduced EF; test: Trial serum and plasma biomarkers; type: in vivo, human
Method: Blood samples were collected in 1) morning fasting state baseline, 2) after standardized breakfast prior to intervention, 3) after 30 min infusion, 4) after 60 min infusion and 5) after 120 min infusion, 6) 30 min after completed infusion and 7) at follow-up 2-5 days later (FIG. 2). Blood was collected in ethylenediaminetetraacetic acid (EDTA) and serum tubes and immediately centrifuged and plasma and serum was aliquoted and stored in −70° C. until analysis.
Creatinine clearance was calculated according to the Cockcroft-Gault equation; ([140-age] * weight in kg*1.23)/creatinine*0.85 (if […]). Renal function was measured by creatinine and cystatin-C at Karolinska University Hospital core laboratory. NT-proBNP was analyzed by proBNPII (Roche Diagnostics, Bromma, Sweden). Plasma glucose measurements were from EDTA-containing whole venous blood tubes and analyzed with a photometric point-of-care technique, the HemoCue® Glucose 201 RT (Ängelholm, Sweden). Troponin T was analyzed in the Karolinska University Hospital core laboratory.

[2] = system: patients with advanced CHF and reduced EF; test: Trial QTc interval (12-lead ECG, Bazett); type: in vivo, human
Method: A plethysmographic based (finger-cuff) approach was used to measure blood pressure (Nexfin®, BMEYE B.V., Amsterdam, The Netherlands). Nexfin was also used for heart rate monitoring. Heart rate and blood pressure data were measured continuously, beat-by-beat, throughout the study protocol. The data was then averaged over 15 minutes following the Innocor measurements. In addition EKG was assessed before start of and during infusion at 60 and 120 minutes and after the ad lib lunch. QT intervals were measured in the precordial lead V5 in 12-lead surface ECGs, at 50 mm/sec paper speed and 10 mm/mV amplitude. Heart rate corrected QT intervals (QTc) were manually calculated with the Bazett formula, QTc=QT/RR^1/2, using the RR interval preceding the measured QT interval. The mean QTc from 3 heart beats was recorded.
The difference in change in heart rate between the groups was quantified. Bradycardia was defined as a reduction in heart rate of >15 beats per minute, to a heart rate <40 beats per minute, an increase in PQ time by >20 ms, or AV block II-III. In individual patients, tachycardia was defined as an increase in heart rate by >10 beats per minute or heart rate >110 beats per minute. Ventricular extraystoles were quantified and ventricular tachycardia was defined as non-sustained if ≥3 beats in a row up to ≤30 seconds, and sustained if >30 seconds. Supra-ventricular arrhythmia was defined as ectopic atrial tachycardia, atrial flutter or atrial fibrillation, or AV-nodal tachycardia of >3 seconds duration. Ghrelin may […] hERG channels and as such cause a prolongation of the QTc interval on the EKG, which theoretically could predispose to arrhythmia. Therefor we monitored QTc.

[3] = system: intracellular cAMP concentration; test: cAMP measurement in cardiomyocytes (direct immunoassay kit); type: cell-based, mouse; settings: vs placebo
Method: The intracellular cAMP concentration was measured using the cAMP direct Immunoassay kit (Abcam ab65355). Briefly, frozen cardiomyocytes pellets from groups described above (Placebo, Ghrelin, D-Lys 3 GHS-R1a+Ghrelin) were homogenized on ice using volume of 0.1 M HCl to obtain a protein concentration of 1 mg/ml. Acetylated supernatants of samples were used for the incubation with antibodies in ELISA plates according to the kit manufacturer. Finally, the optic density absorbance at 450 nm was analyzed using a microplate reader (Biotek, Synergy 2). The concentration of cAMP was normalized, dividing the resulting readout (pmol/ml) by the total protein concentration (mg/ml) for each sample. The experiments were conducted by an operator blinded regarding the treatment of the animals.

rat HF models = settings: cited from earlier work
[4] = Baseline, bracketed range in line below
[5] = After infusion, prior to discharge

In the case of `CCCCCCCC(=O)OC[C@H](NC(=O)[C@H](CO)NC(=O)CN)C(=O)N[C@@H](Cc1ccccc1)C(=O)N[C@@H](CC(C)C)C(=O)N[C@@H](CO)C(=O)N1CCC[C@H]1C(=O)N[C@@H](CCC(=O)O)C(=O)N[C@@H](Cc1cnc[nH]1)C(=O)N[C@@H](CCC(N)=O)C(=O)N[C@@H](CCCNC(=N)N)C(=O)N[C@H](C(=O)N[C@@H](CCC(N)=O)C(=O)N[C@@H](CCC(N)=O)C(=O)N[C@@H](CCCNC(=N)N)C(=O)N[C@@H](CCCCN)C(=O)N[C@@H](CCC(=O)O)C(=O)N[C@@H](CO)C(=O)N[C@@H](CCCCN)C(=O)N[C@@H](CCCCN)C(=O)N1CCC[C@H]1C(=O)N1CCC[C@H]1C(=O)N[C@@H](C)C(=O)N[C@@H](CCCCN)C(=O)N[C@@H](CC(C)C)C(=O)N[C@@H](CCC(N)=O)C(=O)N1CCC[C@H]1C(=O)N[C@@H](CCCNC(=N)N)C(=O)O)C(C)C` [Ghrelin], the ALAT ([1]; 2-5 days FU) is reported as 0.31 ukat/L, the ASAT ([1]; 2-5 days FU) is reported as 0.42 ukat/L and the “Cystatin C” value ([1]; 2-5 days FU) is reported as 1.59 ± 0.52* mg/L. For the same molecule, the GT ([1]; 2-5 days FU) was 0.83 ukat/L, the Haematocrit ([1]; 2-5 days FU) was 41 ± 5% and the “INR among non-warfarin treated” value ([1]; 2-5 days FU) was 1.0. The “INR among warfarin treated” value ([1]; 2-5 days FU) was 2.6, the “Insulin (non-fasting)” value ([1]; 2-5 days FU) was 30 mlE/L and the NT-proBNP ([1]; 2-5 days FU) was 2450* ng/L. It also gave a Potassium ([1]; 2-5 days FU) of 4.3 ± 0.4 mmol/L, a Sodium ([1]; 2-5 days FU) of 138 ± 12 mmol/L and a Triglycerides ([1]; 2-5 days FU) of 1.6 mmol/L. For the same molecule, the “Troponin T” value ([1]; 2-5 days FU) was 31 ± 38 ng/L, the “White blood cell count” value ([1]; 2-5 days FU) was 7.4 ± 2.0 109/L and the hsCRP ([1]; 2-5 days FU) was 3.0 mg/L. The “NT-proBNP” value ([1]; 2-5 days after infusion) was “remained elevated”, the ALAT ([1]; 30′ after infusion) was 0.32 ukat/L and the ASAT ([1]; 30′ after infusion) was 0.43 ukat/L. For the same molecule, the “Cystatin C” value ([1]; 30′ after infusion) was 1.54 ± 0.41 mg/L, the GT ([1]; 30′ after infusion) was 0.82 ukat/L and the NT-proBNP ([1]; 30′ after infusion) was 2820 ng/L. The “Troponin T” value ([1]; 30′ after infusion) was 21 ± 10 ng/L, the hsCRP ([1]; 30′ after infusion) was 3.5 mg/L and the “Cystatin C” value ([1]; Baseline) was 1.45 ± 0.44 mg/L. For the same molecule, the “Troponin T” value ([1]; Baseline) was 21 ± 9 ng/L, the ALAT ([1]; Baseline (Table 12)) was 0.31 ukat/L and the ASAT ([1]; Baseline (Table 12)) was 0.41 ukat/L. The “Cystatin C” value ([1]; Baseline (Table 12)) was 1.45 ± 10.44 mg/L, the GT ([1]; Baseline (Table 12)) was 0.77 ukat/L and the Haematocrit ([1]; Baseline (Table 12)) was 40 ± 4%. The “INR among non-warfarin treated” value ([1]; Baseline (Table 12)) was 1.1, the “INR among warfarin treated” value ([1]; Baseline (Table 12)) was 2.2 and the “Insulin (non-fasting)” value ([1]; Baseline (Table 12)) was 36 mlE/L. For the same molecule, the NT-proBNP ([1]; Baseline (Table 12)) was 2080 ng/L, the Sodium ([1]; Baseline (Table 12)) was 139 ± 13 mmol/L and the Triglycerides ([1]; Baseline (Table 12)) was 1.4 mmol/L. The “Troponin T” value ([1]; Baseline (Table 12)) was 21 ± 10 ng/L, the “White blood cell count” value ([1]; Baseline (Table 12)) was 7.4 ± 1.9 109/L and the hsCRP ([1]; Baseline (Table 12)) was 2.7 mg/L. It also gave an ALAT [1, 4] of 0.31 ukat/L, an ASAT [1, 4] of 0.41 ukat/L and a GT [1, 4] of 0.77 ukat/L. For the same molecule, the hsCRP [1, 4] was 2.7 mg/L, the NT-proBNP ([1]; Baseline, bracketed range in lines below) was 2080 ng/L and the ALAT ([1]; Infusion + 30′) was 0.31 ukat/L. The ASAT ([1]; Infusion + 30′) was 0.40 ukat/L, the “Cystatin C” value ([1]; Infusion + 30′) was 1.46 ± 0.44 mg/L and the GT ([1]; Infusion + 30′) was 0.78 ukat/L. For the same molecule, the NT-proBNP ([1]; Infusion + 30′) was 2220 ng/L, the “Troponin T” value ([1]; Infusion + 30′) was 21 ± 9 ng/L and the hsCRP ([1]; Infusion + 30′) was 3.0 mg/L. For the same molecule, the ALAT ([1]; Infusion + 60′) was 0.31 ukat/L, the ASAT ([1]; Infusion + 60′) was 0.44 ukat/L and the “Cystatin C” value ([1]; Infusion + 60′) was 1.55 ± 0.47* mg/L. The GT ([1]; Infusion + 60′) was 0.79 ukat/L, the NT-proBNP ([1]; Infusion + 60′) was 2340* ng/L and the “Troponin T” value ([1]; Infusion + 60′) was 22 ± 10 ng/L. The hsCRP ([1]; Infusion + 60′) was 3.0 mg/L, the ALAT ([1]; Infusion + 120′) was 0.31 ukat/L and the ASAT ([1]; Infusion + 120′) was 0.41 ukat/L. The “Cystatin C” value ([1]; Infusion + 120′) was 1.57 ± 0.43* mg/L, the GT ([1]; Infusion + 120′) was 0.80 ukat/L and the NT-proBNP ([1]; Infusion + 120′) was 2630* ng/L. The “Troponin T” value ([1]; Infusion + 120′) was 21 ± 10 ng/L, the hsCRP ([1]; Infusion + 120′) was 3.3 mg/L and the “Cystatin C” value ([1]; during infusion) was “increased”. The “NT-proBNP” value ([1]; during infusion) was “increased”, the “Maximal QTc prolongation from baseline” value ([2]; 2-5 days after) was “+47 ms” and the “Median (interquartile range) changes in QTc from baseline” value (“Median (interquartile range) changes” for short) ([2]; 2-5 days after) was −4 (−34 to +4) ms. For the same molecule, the “Maximal QTc prolongation from baseline” value [2, 5] was “+47 ms”, the “Median (interquartile range) changes” value [2, 5] was “+18 (−10 to +30) ms” and the “Maximal QTc prolongation from baseline” value ([2]; During infusion, 60 minutes) was “+36 ms”. The “Median (interquartile range) changes” value ([2]; During infusion, 60 minutes) was “+4 (−7 to +21) ms”, the “Maximal QTc prolongation from baseline” value ([2]; During infusion, 120 minutes) was “+45 ms” and the “Median (interquartile range) changes” value ([2]; During infusion, 120 minutes) was “+8 (−4 to +26) ms”. For the same molecule, the “change in QTc” value ([2]; in vivo) was “nominal but not significant increase”, the “cAMP concentration in cardiomyocytes” value [3] was “reduces” and the “cAMP concentration in cardiomyocytes” value ([3]; listed as ghrelin) was “lower compared to placebo”. For the same molecule, the “CO and fractional shortening” value (rat HF models; rat HF models (Nagaya et al., 2001d)) was “increased CO and fractional shortening” and the “cardiac sympathetic activity and LV remodeling” value (rat HF models; rat myocardial infarction models) was “reduced cardiac sympathetic activity and left ventricular (LV) remodeling”.
